Assay type in all cases: cell-based, Escherichia coli
The test system of one assay is EKO-35 araC::macAB Pore. Put plainly: MIC susceptibility profiling, porinated efflux platform. The following applies: Escherichia coli; EKO-35 araC::macAB Pore; technical duplicate; read-out: Minimum inhibitory concentration. The procedure: (§1) For genomic integration of the pore, the fhuA ΔC/Δ4L gene and the adjacent gentamicin resistance cassette were amplified using a high-fidelity polymerase and the fhuA_40_Up/gImS_3680_Low primers (Table 4). Integration of the pore gene was performed as described above. The pore gene was introduced into the intergenic region between the glmS and pstS genes, with gene expression under the control of a constitutive promoter (Kearse, M. et al., 2012). Genomic integrations were verified using PCR (Primers: pstS_520_Up/glmS_3680_Low, Table 4). Successful integrations were transformed with pCP20 to remove the gentamicin resistance cassette as previously described. Activity of the pore was confirmed through susceptibility testing with the large antibiotic vancomycin prior to phenotypic profiling and further susceptibility testing.
(§2) Single colonies were used to inoculate 3 mL of LB followed by incubation at 37° C. for 18 h with aeration at 220 rpm. The bacterial cells were harvested by centrifugation and resuspended in phosphate buffered saline (PBS) ([pH 7.4], 137 mM NaCl (Bioshop), 2.7 mM KCl (Bioshop), 10 mM Na2PO4 (Bioshop) and 1.8 mM K2PO4) to an OD600 nm˜1.0, followed by 1/2000 dilution into MHB II.
(§3) To a 384-well microtiter plate (Corning, untreated polystyrene), 500 nL of compound was dispensed, in duplicate, and serially titrated 2-fold using an Echo 550 acoustic liquid dispenser (Labcyte Inc.). […] As a solvent control, 500 nL of DMSO was applied to wells that contained no compound. Using a multichannel pipette, 50 μL of the prepared bacterial inoculum was applied to each well. To enable background correction post-incubation, the OD600 nm was measured (Biotek Synergy Neo2 microplate reader) prior to incubation. The plates were incubated at 37° C. with aeration at 900 rpm for 18 h. The plates were equilibrated to room temperature and the OD600 nm measured using a BioTek Synergy Neo2 microplate reader. Data was analyzed in both Prism (GraphPad, Version 9.2.0) and Microsoft Excel (Version 16.53). Raw data were input into Microsoft Excel and the pre-incubation OD600 nm measurements were subtracted from the post-incubation OD600 nm measurements. These corrected measurements were input into Prism 9 as a grouped analysis. […] All other MIC values were adjusted accordingly and visualized using the single-color scale grouped heat map function. Identification of compound chemical properties was achieved using DataWarrior (Version 5.5.0). Using PubChem, the SMILES chemical notation for each compound was obtained and compiled in Microsoft Excel. The resulting spreadsheet was input into DataWarrior and properties were calculated from the compound chemical structures.

The test system of another assay is EKO-35 araC::emrKY Pore. Described as above. The following applies: Escherichia coli; EKO-35 araC::emrKY Pore; technical duplicate; read-out: Minimum inhibitory concentration. The procedure:
as §1, §2, §3

The next assay concerns EKO-35 araC::acrB Pore. The assay is described as above. The following applies: Escherichia coli; Table 14A; porinated; technical duplicate; read-out: Minimum inhibitory concentration, EKO-35 araC::acrB Pore. The procedure: as §1, §2, §3
The test system of the next assay is EKO-35 araC::mdtEF Pore. Described as above. The following applies: Escherichia coli; Table 14A; porinated; technical duplicate; read-out: Minimum inhibitory concentration, EKO-35 araC::mdtEF Pore. The procedure: as §1, §2, §3
The test system of a further assay is EKO-35 araC::acrEF Pore. The description is as above. The following applies: Escherichia coli; Table 14A; porinated; technical duplicate; read-out: Minimum inhibitory concentration, EKO-35 araC::acrEF Pore. The procedure:
as §1, §2, §3

The test system of assay [1] is EKO-35 araC::acrBD408A Pore. The description is as above. The following applies: Escherichia coli; EKO-35 araC::acrBD408A Pore; technical duplicate; read-out: Minimum inhibitory concentration. The procedure:
as §1, §2, §3

Another assay concerns EKO-35 araC::mdtBC Pore. The description is as above. The following applies: Escherichia coli; EKO-35 araC::mdtBC Pore; technical duplicate; read-out: Minimum inhibitory concentration. The procedure:
as §1, §2, §3

A further assay has as its system EKO-35 araC::acrD Pore. The assay is described as above. The following applies: Escherichia coli; Table 14A; porinated; technical duplicate; read-out: Minimum inhibitory concentration, EKO-35 araC::acrD Pore. The procedure:
as §1, §2, §3

The next assay deals with E. coli ΔtolC. Put plainly: microbe, parasite or virus in culture. The procedure:
as §2, §3

Assay [2] concerns wild-type E. coli K-12 str. BW25113. Put plainly: microbe, parasite or virus in culture. The following applies: Escherichia coli, BW25113, technical duplicate. The procedure:
as §2, §3

Another assay deals with E. coli EKO-35. Put plainly: microbe, parasite or virus in culture. The following applies: Escherichia coli, EKO35, technical duplicate. The procedure: as §2, §3
Another assay deals with EKO-35 araC::acrB. Put plainly: MIC susceptibility profiling, efflux platform. The following applies: Escherichia coli; Table 13A; non-porinated; technical duplicate; read-out: Minimum Inhibitory Concentration, EKO-35 araC::acrB. The procedure: as §2, §3
The next assay concerns EKO-35 araC::acrEF. The assay can be described thus: MIC susceptibility profiling, efflux platform. The following applies: Escherichia coli; Table 13A; non-porinated; technical duplicate; read-out: Minimum Inhibitory Concentration, EKO-35 araC::acrEF. The procedure:
as §2, §3

Assay [3] concerns EKO-35 araC::mexCD (MexCD from P. aeruginosa). Put plainly: MIC susceptibility profiling, efflux platform. The following applies: Table 13B; non-porinated; technical duplicate; read-out: Minimum Inhibitory Concentration, EKO-35 araC::mexCD. The procedure: as §2, §3
The test system of a further assay is ΔtolC-Pore. Put plainly: microbe, parasite or virus in culture. The procedure:
as §1, §2, §3

The subject of another assay is wild-type (WT) K-12-Pore. The assay can be described thus: microbe, parasite or virus in culture. The following applies: Escherichia coli, technical duplicate. The procedure:
as §1, §2, §3

Another assay concerns EKO-35-Pore. The assay can be described thus: MIC susceptibility profiling, porinated strain. The following applies: Escherichia coli, technical duplicate. The procedure: as §1, §2, §3

Read-outs that look alike come from different tables or passages of the source.

On to `O=C(O)c1cn(C2CC2)c2cc(N3CCNCC3)c(F)cc2c1=O` [ciprofloxacin], for which the MIC is 2 ng/mL in the assay with EKO-35 araC::macAB Pore; 2 ng/mL with EKO-35 araC::emrKY Pore; 9 ng/mL in the assay on EKO-35 araC::acrB Pore; 2 ng/mL in the assay with EKO-35 araC::mdtEF Pore; 10 ng/mL with EKO-35 araC::acrEF Pore; 2 ng/mL in assay [1]. Besides, the MIC with EKO-35 araC::mdtBC Pore amounted to 2 ng/mL; in the assay on EKO-35 araC::acrD Pore, 2 ng/mL; in the assay on E. coli ΔtolC (Escherichia coli, 18 h, read-out: Minimum Inhibitory Concentration, ΔtolC) it was 5 ng/mL; in [2] (Table 10, without pore, read-out: Minimum inhibitory concentration (MIC), K-12), 10 ng/mL; in assay [2] (Table 13A, non-porinated, read-out: Minimum Inhibitory Concentration, K-12) it was 10 ng/mL; with E. coli EKO-35 (Table 10, without pore, read-out: Minimum inhibitory concentration (MIC), EKO-35) it was 5 ng/mL. The MIC came to 5 ng/mL in the assay with E. coli EKO-35 (Table 13A, non-porinated, read-out: Minimum Inhibitory Concentration, EKO-35); 20 ng/mL in the assay on EKO-35 araC::acrB; 20 ng/mL in the assay with EKO-35 araC::acrEF; 10 ng/mL in [3]; 2 ng/mL in the assay with ΔtolC-Pore (Escherichia coli, 18 h, read-out: Minimum inhibitory concentration, ΔtolC-Pore); 5 ng/mL in the assay on wild-type (WT) K-12-Pore (Table 10, with pore, read-out: Minimum inhibitory concentration (MIC), Pore K-12). Moreover, the MIC is 5 ng/mL in the assay on wild-type (WT) K-12-Pore (Table 14A, porinated, read-out: Minimum inhibitory concentration, K-12 (WT)-Pore); 2 ng/mL in the assay on EKO-35-Pore (Table 10, with pore, read-out: Minimum inhibitory concentration (MIC), Pore EKO-35); 2 ng/mL in the assay on EKO-35-Pore (Table 14A, porinated, read-out: Minimum inhibitory concentration, EKO-35-Pore). Also, the “Minimum inhibitory concentration (MIC), ΔtolC” value with E. coli ΔtolC (Table 10, without pore, technical duplicate) came to 5 ng/mL. Also, the “Minimum inhibitory concentration (MIC), Pore ΔtolC” value in the assay with ΔtolC-Pore (Table 10, with pore, technical duplicate) was found to be 2 ng/mL.

The values are drawn from patent US20230407243A1, “GENETIC PLATFORM TO INVESTIGATE THE FUNCTIONS OF BACTERIAL DRUG EFFLUX PUMPS” (priority 2022, published 2023).
